Test results from US9187458B2, “Cyanoquinoline derivatives” (Tianjin Hemay Bio-Tech Co., LTD., priority 2010, dated 2015).

How the values were obtained:
BxPc-3 cells = experiment: BxPc-3 Cell Growth Inhibition Test (MTT Assay); assay type: cell-based; details: Homo sapiens, 72 h incubation
Description: BxPc-3 Cell Growth Inhibition Test (MTT Assay) Cell strains: BxPC-3 (human pancreatic cancer cell strains); Culture medium: 90% RPMI-1640+10% FBS; 1. A plate (10 cm) of cells in logarithmic growth phase normally cultured was collected; 2. The culture solution was sucked out. […] The plate was washed with 5 ml of PBS 1-2 times; 3. PBS was sucked out. 1.5 ml of 0.25% pancreatin was added to infiltrate the cells for 1 min; 4. The pancreatin was sucked out. The culture plate was placed in an incubator. Digestion was carried out for about 5 min at 37° C.; 5. 4.5 ml of complete culture solution was added to the culture plate to stop the digestion. The cells were carefully scoured with micropipette (1 ml) to give a uniform cell suspension. The suspension was implanted into a 96-well cell culture plate by 5000 cells/100 μl per well. The culture plate was incubated overnight under 5% CO2 at 37° C. In day 2, 100 μl of culture solution comprising a compound was added in each well, and further incubated for 72 h under 5% CO2 at 37° C. 6. The culture solution was sucked out; 7. 100 μl of serum-free culture solution containing 0.5 mg/ml MTT was added in each well, and incubated for 3 h; 8. The culture solution was carefully sucked out; 9. 100 μl of DMSO was added in each well and vibrated to dissolve; 10. OD values were determined at […]. 1. Calculation of Relative Inhibition Ratio The inhibition ratio of a compound on cell growth=(PC−n)/(PC−NC)×100% IC50: Concentration of a compound where inhibition ratio was 50%. IC50 values were fitted with Origin7.5.

NCI-H1650 cells = experiment: NCI-H1650 Cell Growth Inhibition Test (SRB Assay); assay type: cell-based; details: Homo sapiens, 72 h incubation
Description: NCI-H1650 Cell Growth Inhibition Test (SRB Assay)
1. Cell strains: NCI-H1650 (human non-small cell lung cancer cell strains);
2. SRB, 0.4% (w/v) working solution was formulated with 1% glacial acetic acid and reserved at 4° C.; antitumor compounds; DMSO
1. A plate (10 cm) of cells in logarithmic growth phase normally cultured was collected;
2. The culture solution was sucked out. The plate was washed with 5 mL of PBS 1-2 times;
3. 1.5 mL of 0.25% pancreatin was added to the plate to infiltrate the cells;
4. The pancreatin was sucked out. The culture plate was placed in an incubator. Digestion was carried out for about 3 min at 37° C.;
5. 4 mL of complete culture solution was added to the culture plate to stop the digestion. The cells were carefully scoured with micropipette (1 ml) to give a uniform single cell suspension. The suspensin was implanted into a 96-well cell culture plate by 6000 cells/100 μl per well. The culture plate was incubated overnight under 5% CO2 at 37° C. In day 2, 100 μl of culture solution comprising a compound was added in each well, and further incubated for 72 h under 5% CO2 at 37° C.;
6. The culture solution was sucked out. 100 uL of TCA fixed cells which were diluted to 10% were added to each well. The plate was kept in a refrigerator for 1 h at 4° C.
7. TCA stationary liquid was sucked out. Each well was washed with 150 μL of ddH2O five times;
8. After the stationary liquid was cleansed, the plate was dried in the air at the room temperature;
9. 60 μL of SRB staining solution was added in each well. The well was stained for 15 min at the room temperature;
10. The SRB staining solution was sucked out. Each well was washed with 150 μL of 1% glacial acetic acid five times;
11. After the SRB staining solution was cleansed, the plate was dried in the air at the room temperature;
12. 100 μL of 10 mM Tris was added in each well, the plate was vibrated to dissolve out SRB;
13. OD values were determined at 570 nM.
1. Calculation of Relative Inhibition Ratio The inhibition ratio of a compound on cell growth=(PC−n)/(PC−NC)×100%
IC50: Concentration of a compound where inhibition ratio was 50%. IC50 values were fitted with Origin7.5.

EGFR-TK = target: T1, EGFR-TK (Homo sapiens, UniProt P00533); experiment: Inhibition Test on EGFR-TK (ELISA, PGT substrate); assay type: biochemical; details: 20 min at room temperature, read-out: Inhibition Activity (EC50) on EGFR-TK phosphorylation
T1 construct: EGFR-TK: intracellular epidermal growth factor receptor phosphorylase
T1 sequence (P00533 669-1210 limits assumed): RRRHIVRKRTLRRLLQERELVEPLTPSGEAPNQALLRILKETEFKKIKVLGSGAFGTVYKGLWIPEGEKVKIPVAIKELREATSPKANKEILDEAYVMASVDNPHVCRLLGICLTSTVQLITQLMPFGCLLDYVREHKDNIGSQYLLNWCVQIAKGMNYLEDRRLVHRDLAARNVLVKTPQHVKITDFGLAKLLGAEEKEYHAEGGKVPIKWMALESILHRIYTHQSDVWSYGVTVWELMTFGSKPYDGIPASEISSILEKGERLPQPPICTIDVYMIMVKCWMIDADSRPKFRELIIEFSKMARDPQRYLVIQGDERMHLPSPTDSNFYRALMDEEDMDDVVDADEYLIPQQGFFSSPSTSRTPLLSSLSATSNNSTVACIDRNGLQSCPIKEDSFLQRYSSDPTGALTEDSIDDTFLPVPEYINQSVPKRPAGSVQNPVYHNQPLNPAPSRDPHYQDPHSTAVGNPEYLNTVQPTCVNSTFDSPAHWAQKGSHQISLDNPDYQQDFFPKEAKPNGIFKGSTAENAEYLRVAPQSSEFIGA
Description: Inhibition Test on EGFR-TK
1. 2 mg/ml of PGT was diluted with PBS to 0.2 mg/ml. The resulting solution was added into elisa plate by 50 μl per well. The plate was placed in a refrigerator at 4° C. and coated overnight.
2. The coating solution was discarded to stop coating. The plate was washed three times with PBS, and then beaten to dryness.
3. The elisa plate was placed in a refrigerator at 4° C., drained out and stood for 2h.
4. The mother liquid of aqueous solution of each compound was diluted with double distilled water to four folds, i.e. a desirable concentration. Then, the compound was diluted and added in the corresponding elisa well by 25 μl/well.
5. […] of ATP solution was diluted with double distilled water to 50 folds and then sufficiently mixed. The resulting solution was separately added in each elisa well by 25 μl per well (except for the negative control).
6. EGFR kinase was diluted with 2×TKB to 800 folds. The solution was added in elisa well with 50 μl per well. Then, the enzyme reaction began. The elisa plate was immediately placed on a micro-oscillator and shaked to react for 20 min at the room temperature.
7. 2% of SDS was added in the elisa well to stop the reaction by adding 100 μl of SDS into each well. The solution was sufficiently mixed on the micro-oscillator to sufficiently mix for about 5 min.
8. The reaction solution was sucked out. The plate was washed four times with PBST. After the plate was beaten to dryness, 0.25 μg/ml of mice anti-phosphorylation tyrosine-HRP antibody which was diluted with blocking solution (3% solution of BSA in PBST) was added in the plate by 100 μl per well. The mixture was reacted for 30 min at the room temperature.
9. The antibody reaction solution was sucked out. The plate was washed four times with PBST. After the plate was beated to dryness, TMB peroxidase substrate was added to the plate by 100 μl/well. The mixture reacted in the dark for 15 min at the room temperature.
10. 100 μl of 2N H2SO4 was added in the plate to stop the chromogenic reaction. After the bubbles were cleansed, OD values were determined in ELIASA at 450 nm.
11. Formula for calculating inhibition percentage: […]

| SMILES | IC50 (BxPc-3 cells) [µM] | IC50 (NCI-H1650 cells) [µM] | EC50 (EGFR-TK) [µM] |
| --- | --- | --- | --- |
| CN(C)C/C=C/C(=O)Nc1cc2c(Nc3ccc(OCc4ccccn4)c(Cl)c3)c(C#N)cnc2cc1O[C@H]1CCOC1 [Example 138, (S,E)-N-(4-(3-CHLORO-4-(PYRIDIN-2-YL-METHOXY)PHENYLAMINO)-3-CYANO-7-(TETRAHYDROFURAN-3-YL-OXY)QUINOLIN-6-YL)-4-(DIMETHYLAMINO)-BUT-2-ENAMIDE] | 0.337 | 1.1 | 0.11 |
| CN(C)C/C=C/C(=O)Nc1cc2c(Nc3ccc(OCc4ccccn4)c(Cl)c3)c(C#N)cnc2cc1O[C@@H]1CCOC1 [Example 139, (R,E)-N-(4-(3-CHLORO-4-(PYRIDIN-2-YL-METHOXY)PHENYLAMINO)-3-CYANO-7-(TETRAHYDROFURAN-3-YL-OXY)QUINOLIN-6-YL)-4-(DIMETHYLAMINO)-BUT-2-ENAMIDE] | 0.188 | 1.13 | – |
| CN(C)C/C=C/C(=O)Nc1cc2c(Nc3ccc(F)c(Cl)c3)c(C#N)cnc2cc1O[C@H]1CCOC1 [Example 142, (S,E)-N-(4-(3-CHLORO-4-FLUOROPHENYLAMINO)-3-CYANO-7-(TETRAHYDROFURAN-3-YL-OXY)QUINOLIN-6-YL)-4-(DIMETHYLAMINO)-BUT-2-ENAMIDE] | 0.416 | – | – |
| C#Cc1cccc(Nc2c(C#N)cnc3cc(OC4CCOC4)c(NC(=O)/C=C/CN(C)C)cc23)c1 (centres unmarked) [Example 5, (E)-N-(3-CYANO-4-(3-ETHYNYLPHENYLAMINO)-7-(TETRAHYDROFURAN-3-YL-OXY)QUINOLIN-6-YL)-4-(DIMETHYLAMINO)-BUT-2-ENAMIDE] | – | – | 0.044 |
| CN(C)C/C=C/C(=O)Nc1cc2c(Nc3ccc(OCc4cccc(F)c4)c(Cl)c3)c(C#N)cnc2cc1OC1CCOC1 (centres unmarked) [Example 9, (E)-N-(4-(4-(3-FLUOROBENZYLOXY)-3-CHLOROPHENYLAMINO)-3-CYANO-7-(TETRAHYDROFURAN-3-YL-OXY)QUINOLIN-6-YL)-4-(DIMETHYLAMINO)-BUT-2-ENAMIDE] | – | 0.636 | 0.135 |
| CN(C)C/C=C/C(=O)Nc1cc2c(Nc3ccc(F)c(Cl)c3)c(C#N)cnc2cc1OC1CCOC1 (centres unmarked) [Example 4, (E)-N-(4-(3-CHLORO-4-FLUOROPHENYLAMINO)-3-CYANO-7-(TETRAHYDROFURAN-3-YL-OXY)QUINOLIN-6-YL)-4-(DIMETHYLAMINO)-BUT-2-ENAMIDE] | – | – | 0.042 |
| CN(C)C/C=C/C(=O)Nc1cc2c(Nc3ccc(OCc4ccccn4)c(Cl)c3)c(C#N)cnc2cc1OC1CCOC1 (centres unmarked) [Example 21, (E)-N-(4-(3-CHLORO-4-(PYRIDIN-2-YL-METHOXY)PHENYLAMINO)-3-CYANO-7-(TETRAHYDROFURAN-3-YL-OXY)QUINOLIN-6-YL)-4-(DIMETHYLAMINO)-BUT-2-ENAMIDE] | – | – | 0.154 |
